Usually EC50 stands for the concentration that produces a half-maximal response. The low end stands for an effect from little substance, the high end for a need for much substance. Broadly, the IC50 is the concentration that inhibits the measured activity by half.

From patent US10781203B2, “Nontoxic compounds for the treatment and prevention of herpesvirus infections” (The Penn State Research Foundation, priority 2016, dated 2020) come the findings set out here.

For one data set, the system named is cells. As to the kind of experiment: Cell viability after extended treatment (trypan blue, bright field). The settings on record: after 96 hours of treatment. Format: cell-based. The text has this:
FIG. 3A is a growth curve analysis of HCMV (MOI=3) in untreated (WT), vehicle treated (DMSO) or Retro94-treated cells. Samples were harvested at 24, 48, 72, 96, 120 and 144 hpi. […] Nuclei labeled with DAPI (blue). Scale bars: 10 μm. FIG. 3C is a growth curve analysis of HCMV (MOI=0.05) in DMSO control (DMSO) or Retro94-treated cells. Samples were harvested at 3, 6, 9, 12 and 15 dpi. Asterisks indicate change of media with fresh Retro94. […] Bright field images of cell monolayers at 4 days post treatment are shown below graph. Brefeldin A was included as a positive control for cell death. Values in FIGS. 3A and 3C are from one representative experiment.
Normal human dermal fibroblasts, HDFs (Cell Applications Inc. 106-05N), and normal human lung fibroblasts, MRC-5 cells (ATCC CCL-171) were maintained in Dulbecco's modified Eagle's medium (DMEM) (Lonza). Human retinal pigmented epithelial cells (ARPE-19), maintained in DMEM/Ham's F12 (1:1 mix) (Lonza), human embryonic lung fibroblasts (HEL) and mouse embryonic fibroblasts (NIH 3T3), maintained in DMEM (Lonza) were obtained (Spector D J, Yetming K. Virology. 2010; 407(2):171-7; Spector D J. Virology. 2015, 476:345-54). All media was supplemented with 10% fetal bovine serum, 100 U/ml penicillin and 100 µg/ml streptomycin, and 2 mM GlutaMAX (Gibco). Cells were maintained at 37° C. with 5% CO2. […]

The subject of the next data set is HCMV. Briefly: HCMV single-step growth curve / virus titer analysis (MOI=3). It is filed as cell-based, Human cytomegalovirus (HCMV). The following applies: Human betaherpesvirus 5; for EC50: MOI=3, harvested at 96 hpi (FIG. 9). The procedure: Infections were done at an MOI of 0.05 for multi-step growth curves and MOI 3 for single-step growth curves. Infections were done on NHDFs unless otherwise noted. Virus was incubated with cells for 2 hours before addition of fresh media. For growth curve analyses, virus was harvested at the indicated time-points for each experiment by scraping the cells into the medium, sonicating 10 times with 1 second pulses, vortexing for 15 seconds, and centrifuging at 13,000 rpm for 10 min. Supernatants were collected, aliquoted and flash-frozen in liquid nitrogen before storage at −80° C.
(§1) For MCMV growth curve analysis, samples were titrated on NIH 3T3 cells and titers were calculated using the 50% tissue culture infective dose method. Both HCMV virus stocks and samples for growth curves were titrated by serial dilutions on MRC5 cells and quantified by the immunological detection of immediate-early proteins as previously described (Britt W J. Human cytomegalovirus: propagation, quantification, and storage. Curr Protoc Microbiol. 2010; Chapter 14: Unit 14E.3). The numbers of stained nuclei were acquired on a Nikon Eclipse Ti Inverted microscope and fluorescent nuclei were quantified using the NIS Elements Software. Images of viral foci from infection of ARPE19 cells were also acquired on Eclipse Ti Inverted microscope. The number and size of foci were quantified using NIS Elements software.
^1H NMR spectra were recorded on a 500 MHz Bruker spectrometer (Billerica, Mass.) using tetramethylsilane (TMS) as the internal reference. The following abbreviations were used to designate chemical shift multiplicities: s=singlet, d=doublet, dd=double doublet, t=triplet, dt=doublet of triplet, m=multiplet. Mass Spec analysis was performed on 4000 Q trap hybrid triple quadrupole/linear ion trap instrument (Applied Biosystems/MDS Sciex) at the proteomic facility at Penn State Hershey Cancer Institute, Hershey, Pa. Thin-layer chromatography (TLC) was on aluminum-supported, precoated silica gel plates (EM Industries, Gibbstown, N.J.). 5-(2-methyl-3-thiazol-4-yl)-2-thiophencarboxaldehyde was purchased from MAYBRIDGE-Thermo Fisher (Cornwall, UK). All other starting materials were obtained from Aldrich Chemical Co. (Milwaukee, Wis.) and used without further purification. Retro94 was added to cells at 2 hpi at a concentration of 10 μM, unless otherwise indicated.

Data set [1] concerns range of viruses from diverse families. As to the kind of experiment: EC50 against non-herpesviruses. Format: cell-based. The settings on record: FIG. 11A. The text has this:
(§2) FIG. 11A provides a table showing EC50 values of Retro94F against a range of viruses from diverse families. […] Samples were harvested at 24, 48 and 72 hpi. Data shown is from one independent replicates.

The next data set deals with mouse polyomavirus. As to the kind of experiment: Immune response of mice challenged with mouse polyomavirus. It is filed as in vivo, B6 mice. The source says:
(A-E) B6 mice were infected via hind footpads with 2×10^5 PFU of MuPyV. FIGS. 14A and 14B show the results of the percent of immune cell populations in the spleen (FIG. 14A) and kidney (FIG. 14B) analyzed at day 8 post infection between vehicle- or Retro94F-treated mice. […] FIGS. 14D-14E show the phenotype of MuPyV-specific CD8 T cells, analyzed at day 8 or day 30 post infection. KLRG1hi CD127lo (FIG. 14D) cells are short-lived effector cells, while KLRG1lo CD127hi (FIG. 14E) cells are memory-precursor effector cells.
Thus, the inhibitors appear to be well tolerated by mice.

The test system of the next data set is MCMV. Briefly: Viral titers of MCMV-infected fibroblasts. It is filed as cell-based, mouse. The following applies: 6 dpi (FIG. 12A). The procedure:
FIG. 7A is a graph showing viral titers at 15 dpi of fibroblasts infected with various strains of HCMV (MOI=0.05) and treated with DMSO or Retro94 at 2 hpi. Media was changed and fresh Retro94 was added at 6 dpi. Bright field images representing CPE of above infections shown at right. FIG. 7B show HCMV-infected ARPE-19 cells (TB40, MOI=3) at 21 dpi treated with DMSO or Retro94 ([…]). Infected cells detected by monitoring mCherry (red) expressed by TB40 virus. Scale bars: 1 mm. The table below images show number of foci detected, average area and standard error of the mean. P<0.00001. […]
as §1, with “Images of viral foci from infection of ARPE19 cells were also acquired on Eclipse Ti Inverted microscope.” left out

Data set [2] in a line: Tolerability in mice (adverse effects, creatinine, BUN). Format: in vivo, C57BL/6 mice. The procedure: FIGS. 13A-13B provides data to support Retro94F showing no overt toxicity in mice. FIGS. 13A and 13B, Mice were treated with […] Retro-2.1 or vehicle control one hour prior to infection with 2×10^4 PFU MuPyV, then daily until day 4 p.i.
While we obtained good results in tissue culture, developing animal models to test the inhibitors was undertaken to allow for studies to test both the properties of the compounds in a host as well as their efficacy against viruses. […] Thus, at least two mouse infection models in which to show efficacy of the compounds against infection in a host organism is provided. Administration of Retro94F to mice to monitor for potential adverse effects of the compound was undertaken. These initial studies have shown that Retro94F is well tolerated by the mice. For these studies, C57BL/6 mice were injected intraperitoneally once daily with 250 μg of Retro94F or vehicle control in 250 μl of 0.9% saline. […] Thus, the inhibitors appear to be well tolerated by mice.

Another data set deals with EBV. As to the kind of experiment: EC50 against other herpesviruses: EBV. Format: cell-based. The settings on record: below the lowest concentration tested (FIG. 10B). The source says:
(§3) FIGS. 10A-10B show data to provide support for Retro94 and derivatives being effective against other herpesviruses. […] Samples were harvested at 24 hpi. Representative data shown are from independent replicates. FIG. 10B provides a table showing low nanomolar EC50 values of Retro94F against other herpesviruses.

For a further data set, the system named is Zika virus. As to the kind of experiment: Growth curve analysis of Zika virus. Format: cell-based. The settings on record: MOI=5; 24, 48 and 72 hpi.
From the text: as §2

The next data set deals with KSHV. Briefly: EC50 against other herpesviruses: KSHV. The following applies: below the lowest concentration tested (FIG. 10B). Format: cell-based.
From the text: as §3

Turning to `C[C@H]1CCC/C=C/[C@@H]2C[C@H](O)C[C@H]2[C@H](O)/C=C/C(=O)O1` [Brefeldin A, reference compound], the “cells remaining in the monolayer” value in the data set with cells is “very few cells in the monolayer remained”.

`Cc1nc(-c2ccc(C3N(C)c4ccc([N+](=O)[O-])cc4C(=O)N3c3ccccc3)s2)cs1` (centres unmarked) [DABL-NM, 6-Nitro-1-methyl-2-(5-(2-methylthiazol-4-yl)thiophen-2-yl)-3-phenyl-2,3-dihydroquinazolin-4(1H)-one]: the EC50 in the data set on HCMV was ~20 nM.

Take `Cc1nc(-c2ccc(C3N(C)c4ccc(F)cc4C(=O)N3c3ccccc3)s2)cs1` (centres unmarked) [Retro94F, 6-Fluoro-1-methyl-2-(5-(2-methylthiazol-4-yl)thiophen-2-yl)-3-phenyl-2,3-dihydroquinazolin-4(1H)-one]: the “EC50 against other viruses” value in data set [1] is given as “high nanomolar to low micromolar range”. In the data set on mouse polyomavirus (challenge with mouse polyomavirus after treatment), the signs of distress result is listed as “no signs of distress”. In the data set with mouse polyomavirus (day 8 or day 30 post infection), the “CD8 T cell response to the virus” value is reported as “did not alter”. Further, the “levels of immune cells (spleen, kidney)” value in the data set with mouse polyomavirus (day 8 post infection) is “equivalent levels of immune cells as control treatment”. In the data set on MCMV, the “inhibition of replication of the mouse equivalent of CMV in culture” value was 99%. The adverse effects entry in [2] (250 μg intraperitoneally once daily for 14 straight days) is reported as “no apparent adverse effects”. In addition, in data set [2] (treated mice, day 4 and day 30 p.i.), the “kidney function (creatinine and BUN levels)” value is listed as “did not adversely affect kidney function”. In addition, in the data set on EBV, the “EC50 (EBV)” value was “low naonmolar range”. In addition, the “inhibition of Zika virus infection” value in the data set with Zika virus is listed as “approximately 90%”. Also, the “EC50 (KSHV)” value in the data set on KSHV was “low naonmolar range”. Besides, in the data set on HCMV, the EC50 is ~20 nM. For the same molecule, the IC50 in the data set with HCMV (added at 2 hpi, MOI 3, 96 hpi, read-out: IC50 (HCMV titers)) was ~15 nM.
